Where a name gives a salt, the structure may show the parent alone. Read-outs that look alike come from different tables or passages of the source.
Target: T1, dopamine D2 receptor (Rattus norvegicus, UniProt P61169)
T1 construct: Striata from rats (Sprague Dawley, Charles River) were homogenized immediately after removal; from tissue; host or cells: rat striatum (Sprague Dawley, Charles River), membranes
Assay: Receptor binding assay: affinity for the dopamine D2 receptor (3H-ADTN displacement, rat striatal membranes)
Set-up: species or system rat (Sprague Dawley)
Experimental: The effects of the novel compounds can be shown in the receptor binding assay as follows:
Striata from rats (Sprague Dawley, Charles River) were homogenized immediately after removal in 0.32M sucrose solution (0° C.). The homogenate was filtered through gauze, the filtrate was centrifuged at 1000 xg (5 min at 4° C.) and the resulting supernatant was centrifuged at 40000 xg (4° C., 10 min). The residue (membranes) was taken up in incubation buffer (50 mM tris-HCl, 1 mM MgCl2 and 0.1% ascorbic acid, pH 7.4) and incubated at 37° C. for 20 min. The residue was subsequently washed 2×with incubation buffer by resuspension and recentrifugation. The membranes were frozen in portions in liquid nitrogen.
The assay mixtures (1 ml) were composed of membranes (380 μg of protein), 1 nM ^3 H-ADTN (NEN, Dreieich Germany, specific radioactivity 1.4 TBq/mmol) and 0.1 μM SCH 23390 (total binding) or a) with the addition of 50 nM spiperone (non-specific binding) or b) with-test substance. The mixtures were prepared in triplicate.
After the incubation (40 min at 25° C.) the mixtures were filtered through glass fiber filters (Whatman GF/B) and briefly washed with ice-cold washing buffer (Tris-HCl pH 7.4). The radioactivity retained on the filters was determined by liquid scintillation counting. The non-specific binding comprised about 40-50% of the total binding.
The evaluation of the competition plots and the determination of the dissociation constant took place by iterative non-linear regression analysis based on the "ligand" program (Muson and Rodbard: Anal. Biochem. 107 (1980) 220).

[1] = rat striatal membranes (380 μg protein), 1 nM 3H-ADTN, 0.1 μM SCH 23390, 40 min at 25° C., non-specific: 50 nM spiperone, read-out: Affinity of the test substances for the dopamine D2 receptor, Ki

T1 sequence (P61169 whole entry): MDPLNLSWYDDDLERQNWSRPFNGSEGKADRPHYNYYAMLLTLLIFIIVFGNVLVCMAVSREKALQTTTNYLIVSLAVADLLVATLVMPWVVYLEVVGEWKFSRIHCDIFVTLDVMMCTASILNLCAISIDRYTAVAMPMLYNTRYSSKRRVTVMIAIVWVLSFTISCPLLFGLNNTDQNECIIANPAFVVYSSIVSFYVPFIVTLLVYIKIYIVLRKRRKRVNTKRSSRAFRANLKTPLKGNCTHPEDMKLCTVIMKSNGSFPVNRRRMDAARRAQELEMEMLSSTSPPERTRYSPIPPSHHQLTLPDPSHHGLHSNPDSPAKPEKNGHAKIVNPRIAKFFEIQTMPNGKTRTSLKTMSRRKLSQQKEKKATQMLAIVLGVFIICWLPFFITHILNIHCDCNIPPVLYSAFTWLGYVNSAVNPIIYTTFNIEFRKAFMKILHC

In the case of Cc1[nH]c(=O)sc1CCCN1CC=C(c2ccccc2)CC1 [Example 1, 4-Methyl-5-[3-(1,2,3,6-tetrahydro-4-phenylpyridyl)propyl]-thiazolin-2-one hydrochloride], the Ki is reported as 8 nM.

Compound Cc1[nH]c(=O)sc1CCCN1CCN(c2ccccn2)CC1 [Example 2, 4-Methyl-5-[3-(4-pyrid-2-ylpiperazinyl)propyl]thiazolin-2-one dihydrochloride] has a Ki [1] of 15 nM.

For Cc1[nH]c(=O)sc1CCCN1CCN(c2ncccn2)CC1 [Example 7, 4-Methyl-5-[3-(4-pyrimidin-2-ylpiperazinyl)propyl]thiazolin-2-one dihydrochloride], the Ki [1] was 12 nM.

CCc1ccccc1N1CCN(CCCc2sc(=O)[nH]c2C)CC1 [Example 10, 4-Methyl-5-[3-(4-(2-ethylphenyl)piperazinyl)propyl]thiazolin-2-one dihydrochloride] was tested, and the Ki [1] was 25 nM.

For CSc1ccccc1N1CCN(CCCc2sc(=O)[nH]c2C)CC1 [Example 12, 4-Methyl-5-[3-(4-(2-methylthiophenyl)piperazinyl)propyl]thiazolin-2-onehydrochloride], the Ki [1] was 6 nM.

In the case of Cc1[nH]c(=O)sc1CCCN1CCN(c2cccc(C(F)(F)F)c2)CC1 [Example 13, 4-Methyl-5-[3-(4-(3-trifluoromethylphenyl)piperazinyl)propyl]thiazolin-2-one hydrochloride], the Ki [1] is reported as 45 nM.

For CCOc1ccccc1N1CCN(CCCc2sc(=O)[nH]c2C)CC1 [Example 14, 4-Methyl-5-[3-(4-(2-ethoxyphenyl)piperazinyl)propyl]thiazolin-2-one dihydrochloride], the Ki [1] was 6 nM.

Cc1c(CCCN2CCN(c3ccccc3)CC2)sc(=O)n1C [Example 17, 3,4-Dimethyl-5-[3-(4-phenylpiperazinyl)propyl]thiazolin-2-one dihydrochloride] gave a Ki [1] of 40 nM.
